Results published in PubChem BioAssay (NCI).
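Results reflect a 48-hour exposure of cells in 96-well plates to compound at five concentrations. TGI: total growth inhibition.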

What was measured:
Assay in all cases: NCI-60 cell line screen, 48 h
HOP-92 NSCLC = system: HOP-92 NSCLC
MCF7 breast = system: MCF7 breast
M14 melanoma = system: M14 melanoma
OVCAR-8 ovarian = system: OVCAR-8 ovarian
SF-295 CNS = system: SF-295 CNS
U251 CNS = system: U251 CNS
HCC-2998 colon = system: HCC-2998 colon
HT29 colon = system: HT29 colon
MOLT-4 leukemia = system: MOLT-4 leukemia
SR leukemia = system: SR leukemia
MALME-3M melanoma = system: MALME-3M melanoma
786-0 renal = system: 786-0 renal
MDA-MB-231 breast = system: MDA-MB-231 breast
SNB-19 CNS = system: SNB-19 CNS
K-562 leukemia = system: K-562 leukemia
HL-60(TB) leukemia = system: HL-60(TB) leukemia
CAKI-1 renal = system: CAKI-1 renal
NCI-H460 lung = system: NCI-H460 lung
A498 renal = system: A498 renal

CC(Cc1ccccc1)N(C)Cc1nc(C2CCC([N+](=O)[O-])O2)no1 (stereo not given)
TGI (HOP-92 NSCLC): 51.2 µM | TGI (MCF7 breast): 15.5 µM | TGI (M14 melanoma): 19.1 µM | TGI (OVCAR-8 ovarian): 59.1 µM | TGI (SF-295 CNS): 20.9 µM | TGI (U251 CNS): 22.9 µM | TGI (HCC-2998 colon): 14.3 µM | TGI (HT29 colon): 11.5 µM | TGI (MOLT-4 leukemia): > 100 µM | TGI (SR leukemia): > 100 µM | TGI (MALME-3M melanoma): 25.6 µM | TGI (786-0 renal): 24.6 µM | TGI (MDA-MB-231 breast): 9.93 µM | TGI (SNB-19 CNS): 25.2 µM

CCCCCCc1cc2cc(-c3cn4c(n3)sc3ccccc34)c(=O)oc2cc1O
TGI (HOP-92 NSCLC): > 100 µM | TGI (MCF7 breast): > 100 µM | TGI (M14 melanoma): > 100 µM | TGI (OVCAR-8 ovarian): > 100 µM | TGI (SF-295 CNS): > 100 µM | TGI (K-562 leukemia): > 100 µM | TGI (U251 CNS): > 100 µM | TGI (HCC-2998 colon): > 100 µM | TGI (HT29 colon): > 100 µM | TGI (HL-60(TB) leukemia): > 100 µM | TGI (MOLT-4 leukemia): > 100 µM | TGI (CAKI-1 renal): > 100 µM | TGI (SR leukemia): > 100 µM | TGI (786-0 renal): > 100 µM | TGI (MDA-MB-231 breast): > 100 µM | TGI (NCI-H460 lung): > 100 µM | TGI (SNB-19 CNS): > 100 µM

COc1ccc(C2Oc3c(cccc3-c3c(-c4ccc(O)cc4)oc4cc(O)cc(O)c4c3=O)C(=O)C2O)cc1O (stereo not given)
TGI (HOP-92 NSCLC): > 100 µM | TGI (MCF7 breast): > 100 µM | TGI (M14 melanoma): > 100 µM | TGI (OVCAR-8 ovarian): > 100 µM | TGI (SF-295 CNS): > 100 µM | TGI (K-562 leukemia): > 100 µM | TGI (U251 CNS): > 100 µM | TGI (HCC-2998 colon): > 100 µM | TGI (HT29 colon): > 100 µM | TGI (HL-60(TB) leukemia): > 100 µM | TGI (MOLT-4 leukemia): > 100 µM | TGI (SR leukemia): > 100 µM | TGI (MALME-3M melanoma): > 100 µM | TGI (786-0 renal): > 100 µM | TGI (A498 renal): > 100 µM | TGI (MDA-MB-231 breast): > 100 µM | TGI (NCI-H460 lung): > 100 µM | TGI (SNB-19 CNS): > 100 µM

O=[N+]([O-])c1cccc(-c2cn3c(n2)Cc2ccccc2C3)c1
TGI (HOP-92 NSCLC): > 100 µM | TGI (MCF7 breast): > 100 µM | TGI (M14 melanoma): > 100 µM | TGI (OVCAR-8 ovarian): > 100 µM | TGI (SF-295 CNS): > 100 µM | TGI (K-562 leukemia): > 100 µM | TGI (U251 CNS): > 100 µM | TGI (HT29 colon): > 100 µM | TGI (HL-60(TB) leukemia): > 100 µM | TGI (MOLT-4 leukemia): > 100 µM | TGI (CAKI-1 renal): 58.2 µM | TGI (SR leukemia): > 100 µM | TGI (MALME-3M melanoma): > 100 µM | TGI (786-0 renal): > 100 µM | TGI (A498 renal): > 100 µM | TGI (MDA-MB-231 breast): 67.6 µM | TGI (NCI-H460 lung): > 100 µM | TGI (SNB-19 CNS): > 100 µM

COC(=O)[C@]12C3=C(O)C(=O)C[C@H]1OC[C@H]2C=CC3
TGI (HOP-92 NSCLC): > 100 µM | TGI (MCF7 breast): > 100 µM | TGI (M14 melanoma): > 100 µM | TGI (OVCAR-8 ovarian): > 100 µM | TGI (SF-295 CNS): > 100 µM | TGI (K-562 leukemia): > 100 µM | TGI (U251 CNS): > 100 µM | TGI (HCC-2998 colon): > 100 µM | TGI (CAKI-1 renal): > 100 µM | TGI (SR leukemia): > 100 µM | TGI (MALME-3M melanoma): > 100 µM | TGI (786-0 renal): > 100 µM | TGI (A498 renal): > 100 µM | TGI (MDA-MB-231 breast): > 100 µM | TGI (NCI-H460 lung): > 100 µM | TGI (SNB-19 CNS): > 100 µM

O=c1oc2ccccc2c(O)c1C(c1cccc(C(c2c(O)c3ccccc3oc2=O)c2c(O)c3ccccc3oc2=O)c1)c1c(O)c2ccccc2oc1=O
TGI (HOP-92 NSCLC): > 100 µM | TGI (MCF7 breast): 61.3 µM | TGI (M14 melanoma): > 100 µM | TGI (OVCAR-8 ovarian): > 100 µM | TGI (SF-295 CNS): > 100 µM | TGI (K-562 leukemia): 53.5 µM | TGI (U251 CNS): > 100 µM | TGI (HCC-2998 colon): 46.2 µM | TGI (HT29 colon): > 100 µM | TGI (HL-60(TB) leukemia): 45.8 µM | TGI (MOLT-4 leukemia): 63.3 µM | TGI (CAKI-1 renal): 49.5 µM | TGI (SR leukemia): 58.8 µM | TGI (786-0 renal): 45.1 µM | TGI (A498 renal): > 100 µM | TGI (MDA-MB-231 breast): 99.3 µM | TGI (NCI-H460 lung): > 100 µM

CN1C(=O)[C@H](c2c[nH]c3ccccc23)[C@H](c2c[nH]c3ccccc23)C1=O
TGI (HOP-92 NSCLC): > 67.3 µM | TGI (MCF7 breast): > 100 µM | TGI (M14 melanoma): > 100 µM | TGI (OVCAR-8 ovarian): > 100 µM | TGI (SF-295 CNS): > 73.7 µM | TGI (K-562 leukemia): > 69.5 µM | TGI (U251 CNS): > 90.1 µM | TGI (HCC-2998 colon): > 100 µM | TGI (HT29 colon): > 83.4 µM | TGI (HL-60(TB) leukemia): > 46.9 µM | TGI (MOLT-4 leukemia): > 77 µM | TGI (CAKI-1 renal): > 38.8 µM | TGI (SR leukemia): > 74.5 µM | TGI (MALME-3M melanoma): > 100 µM | TGI (786-0 renal): > 91.4 µM | TGI (MDA-MB-231 breast): > 31.8 µM | TGI (NCI-H460 lung): > 50.1 µM | TGI (SNB-19 CNS): > 100 µM

CC(=O)NC1CC(C(C)(C)NC(C)=O)CC=C1C (stereo not given)
TGI (HOP-92 NSCLC): > 100 µM | TGI (MCF7 breast): > 100 µM | TGI (M14 melanoma): > 100 µM | TGI (OVCAR-8 ovarian): > 100 µM | TGI (SF-295 CNS): > 100 µM | TGI (K-562 leukemia): > 100 µM | TGI (U251 CNS): > 100 µM | TGI (HCC-2998 colon): > 100 µM | TGI (HT29 colon): > 100 µM | TGI (HL-60(TB) leukemia): > 100 µM | TGI (MOLT-4 leukemia): > 100 µM | TGI (SR leukemia): > 100 µM | TGI (786-0 renal): > 100 µM | TGI (MDA-MB-231 breast): > 100 µM | TGI (NCI-H460 lung): > 100 µM | TGI (SNB-19 CNS): > 100 µM

CSc1ncc2c(C#N)c3[nH]c4ccccc4n3c(=O)c2n1
TGI (HOP-92 NSCLC): > 100 µM | TGI (MCF7 breast): > 100 µM | TGI (M14 melanoma): > 100 µM | TGI (OVCAR-8 ovarian): 98.8 µM | TGI (SF-295 CNS): > 100 µM | TGI (K-562 leukemia): 46 µM | TGI (U251 CNS): > 100 µM | TGI (HCC-2998 colon): 42.7 µM | TGI (HL-60(TB) leukemia): 25.1 µM | TGI (MOLT-4 leukemia): 24.6 µM | TGI (CAKI-1 renal): 78.4 µM | TGI (SR leukemia): 34.5 µM | TGI (786-0 renal): > 100 µM | TGI (A498 renal): 52.7 µM | TGI (MDA-MB-231 breast): > 100 µM | TGI (NCI-H460 lung): 87.8 µM | TGI (SNB-19 CNS): > 100 µM

COc1ccc(/C=C2\Sc3nnc(-c4ccccc4)n3N=C2c2cc(F)c(Cl)cc2Cl)cc1OC
TGI (HOP-92 NSCLC): > 100 µM | TGI (MCF7 breast): > 100 µM | TGI (M14 melanoma): > 100 µM | TGI (OVCAR-8 ovarian): > 100 µM | TGI (SF-295 CNS): > 100 µM | TGI (K-562 leukemia): > 100 µM | TGI (U251 CNS): > 100 µM | TGI (HCC-2998 colon): 47.2 µM | TGI (HT29 colon): > 100 µM | TGI (HL-60(TB) leukemia): > 100 µM | TGI (MOLT-4 leukemia): 68.9 µM | TGI (CAKI-1 renal): > 100 µM | TGI (SR leukemia): > 100 µM | TGI (786-0 renal): > 100 µM | TGI (A498 renal): > 100 µM | TGI (MDA-MB-231 breast): > 100 µM | TGI (NCI-H460 lung): > 100 µM

CC(C)(C)C1=CC(=C2C=Cc3cc(O)ccc3O2)C=C(C(C)(C)C)C1=O
TGI (HOP-92 NSCLC): 3.19 µM | TGI (MCF7 breast): 3.02 µM | TGI (M14 melanoma): 3.29 µM | TGI (OVCAR-8 ovarian): 3.79 µM | TGI (SF-295 CNS): 3.45 µM | TGI (K-562 leukemia): 8.51 µM | TGI (U251 CNS): 2.69 µM | TGI (HCC-2998 colon): 2.54 µM | TGI (HT29 colon): 3.59 µM | TGI (HL-60(TB) leukemia): 3.15 µM | TGI (CAKI-1 renal): 3.11 µM | TGI (SR leukemia): 3.86 µM | TGI (MALME-3M melanoma): 3.16 µM | TGI (786-0 renal): 2.68 µM | TGI (A498 renal): 2.85 µM | TGI (MDA-MB-231 breast): 3.18 µM | TGI (NCI-H460 lung): 2.7 µM | TGI (SNB-19 CNS): 3.3 µM

O=C(Cn1c(C(=O)/C=C/c2ccc(Cl)cc2)nc2ccccc21)c1ccc(Cl)cc1
TGI (HOP-92 NSCLC): > 100 µM | TGI (MCF7 breast): 30.9 µM | TGI (M14 melanoma): 43.6 µM | TGI (K-562 leukemia): > 100 µM | TGI (U251 CNS): 33.4 µM | TGI (HCC-2998 colon): 32.4 µM | TGI (HT29 colon): 42.5 µM | TGI (HL-60(TB) leukemia): 29.1 µM | TGI (MOLT-4 leukemia): 14.5 µM | TGI (SR leukemia): 22.9 µM | TGI (MALME-3M melanoma): 52.6 µM | TGI (786-0 renal): 66.8 µM | TGI (A498 renal): > 100 µM | TGI (MDA-MB-231 breast): 52 µM | TGI (NCI-H460 lung): 28.9 µM | TGI (SNB-19 CNS): 69.5 µM

O=c1[nH]nc(-c2ccccc2)n1-c1cccc([N+](=O)[O-])c1
TGI (HOP-92 NSCLC): > 100 µM | TGI (MCF7 breast): > 100 µM | TGI (M14 melanoma): > 100 µM | TGI (OVCAR-8 ovarian): > 100 µM | TGI (SF-295 CNS): > 100 µM | TGI (K-562 leukemia): > 100 µM | TGI (U251 CNS): > 100 µM | TGI (HCC-2998 colon): > 100 µM | TGI (HT29 colon): > 100 µM | TGI (MOLT-4 leukemia): > 100 µM | TGI (CAKI-1 renal): > 100 µM | TGI (SR leukemia): > 100 µM | TGI (MALME-3M melanoma): > 100 µM | TGI (786-0 renal): > 100 µM | TGI (A498 renal): > 100 µM | TGI (MDA-MB-231 breast): > 100 µM | TGI (NCI-H460 lung): > 100 µM | TGI (SNB-19 CNS): > 100 µM
